Data published in paper PMC3352337, “Synergistic Antimycobacterial Actions of Knowltonia vesicatoria (L.f) Sims” (Evidence-based Complementary and Alternative Medicine : eCAM, 2012).
≈ marks a conversion by molar mass, not a printed value. Like-named read-outs stand apart in the source and are kept apart here. Marks after values point to notes of the source that are not given here. *1 amine or outer side, *2 acyl side, *3 side chain or, on linkers, in order; H or OH if unused. Where a SMILES comes first, the peptide text is derived from it. Bridges are numbered along the chain shown (N, C = ends). Roman numbers before positions name the chains, in order. [ ]: non-standard residue; d: D form. Actinocin(9to1) = Cc1c2oc3c(C)ccc(C(=O)[*:1])c3nc-2c(C(=O)[*:2])c(N)c1=O; NMeV = CN[C@H](C(=O)O)C(C)C; Sar = CNCC(=O)O

Legend:
U937 cells = assay: XTT cytotoxicity assay on PMA-differentiated U937 cells; settings: for IC50: Homo sapiens, U-937, 72 h
[1] = tested on: Mycobacterium smegmatis (MC^2 155); assay: Microdilution (microplate INT) susceptibility assay on M. smegmatis; type: cell-based; settings: Mycolicibacterium smegmatis
Description: Cryopreserved or freshly scraped colonies were suspended in fresh Middlebrook 7H9 broth (Sigma-Aldrich Chemical Co., South Africa) and incubated for 24 h at 37°C. The overnight liquid culture was then transferred to a sterile test tube containing 20–25 glass beads (with a 2.00 mm diameter) and homogenised by using a vortex mixer (Heidolph, Germany) for 5–10 min. The broth culture was then left still for 5–10 min to let larger clumps of mycobacteria settle. The supernatant was carefully decanted to a sterile flask and adjusted with Middlebrook 7H9 broth base to an optical density of 0.2 (log phase) at 550 nm (Beckman DU-720 UV spectrophotometer), yielding 1.26 × 10^8 colony-forming units per millilitre (CFU/mL). The microdilution test was performed in 96-well microtiter plates as described earlier.
The plant extract and fractions were dissolved in 10% dimethyl sulfoxide (DMSO) to obtain a stock concentration of 10 mg/mL. Ciprofloxacin (Sigma-Aldrich Chemical Co., South Africa) at final concentrations ranging from 2.00 × 10^−3 to 7.80 × 10^−5 mg/mL served as the positive drug control. Serial twofold dilutions of each test sample were made with Middlebrook 7H9 broth base (Sigma-Aldrich Chemical Co., South Africa) to yield volumes of […] with final concentrations ranging from 2.50 to 0.08 mg/mL. […]

[2] = tested on: M. tuberculosis H37Rv (ATCC 27294); assay: microbe, parasite or virus in culture; type: cell-based, Mycobacterium tuberculosis; settings: for ΔGI4-3 ± SD: BACTEC growth index change, V2 10^-2 inoculum control 22.0 ± 2.94; for MIC: Mycobacterium tuberculosis, read-out: MIC (minimum inhibitory concentration)
M. tuberculosis [3] = assay: Microplate assay MIC against M. tuberculosis (compound 2); type: cell-based, Mycobacterium tuberculosis; settings: BACTEC MIC not determined
[4] = XTT cytotoxicity assay on PMA-differentiated U937 cells; settings: human, PMA-differentiated U937 cells (macrophage-like), pH 7.2
M. tuberculosis [5] = settings: cited from earlier work
[6] = read-out: IC50 (fifty percent inhibitory concentration)

Which IC50 (U937 cells; read-out: IC50 (fifty percent inhibitory concentration), U937 macrophages, 72 h, XTT) does the source give for `Cc1c2oc3c(C)ccc(C(=O)N[C@@H]4C(=O)N[C@H](C(C)C)C(=O)N5CCC[C@H]5C(=O)N(C)CC(=O)N(C)[C@@H](C(C)C)C(=O)O[C@@H]4C)c3nc-2c(C(=O)N[C@@H]2C(=O)N[C@H](C(C)C)C(=O)N3CCC[C@H]3C(=O)N(C)CC(=O)N(C)[C@@H](C(C)C)C(=O)O[C@@H]2C)c(N)c1=O` [Actinomycin D] (I: T[dV]P[Sar][NMeV] / II: T[dV]P[Sar][NMeV]; ester I:1-I:C, II:1-II:C; linker I:N-II:N via Actinocin(9to1)) here?
Its IC50 is 0.0038 µg/mL (≈ 0.00303 µM).

What about the “IC50 (fifty percent inhibitory concentration)” value (U937 cells; U937 macrophages, 72 h, XTT) of the same compound?
The value was 3.820 ± 0.258 ×10^−3 μg/mL.

What does the source list for `O=C(O)c1cn(C2CC2)c2cc(N3CCNCC3)c(F)cc2c1=O` [Ciprofloxacin]?
MIC ([1]; MC^2155, 24 h, INT microplate, read-out: MIC (minimum inhibitory concentration)): 1.25 µg/mL (≈ 3.77 µM); MBC ([1]; MC^2155, 48 h subculture, INT, read-out: MBC (minimum bactericidal concentration)): 1.25 µg/mL (≈ 3.77 µM)

Which results are given for `CCC(=CC[C@@H](C)[C@H]1CC[C@H]2[C@@H]3CC=C4CC(O)CC[C@]4(C)[C@H]3CC[C@]12C)C(C)C` (some centres unmarked) [Compound (1), Stigmasta-5,23-dien-3-ol]?
IC50 (U937 cells; [6]): 16.41 ± 0.135 µg/mL (≈ 39.8 µM); ΔGI4-3 ± SD [2]: −9.00 ± 1.41; MIC ([2]; BACTEC radiometric): 50 µg/mL (≈ 121 µM)

Which results are given for `O=C1C=CC(CO)O1` (centres unmarked) [Compound (2), 5-(hydroxymethyl)furan-2(5H)-one]?
IC50 (U937 cells; [6]): 44.7 ± 0.5 µg/mL (≈ 392 µM); MIC determined via microplate assay (M. tuberculosis [3]): 100.0^k μg/mL; MIC (M. tuberculosis [3]; Mycobacterium tuberculosis, read-out: MIC determined via microplate assay): 200 µg/mL (≈ 1750 µM)

For `NNC(=O)c1ccncc1` [INH, isoniazid], which IC50 (U937 cells; [6]) is on record?
Its IC50 is greater than 200 µg/mL.

And the viability at 72 h, 200 μg/mL [4]?
Its viability at 72 h, 200 μg/mL is 80%.

What about the “ΔGI4-3 ± SD” value [2] of the same compound?
Its value is −2.50 ± 2.12.

What about the “MIC (minimum inhibitory concentration)” value ([2]; BACTEC radiometric) of the same compound?
The value was 0.20 µg/mL (≈ 1.46 µM).

What about the MIC ([2]; BACTEC radiometric) of the same compound?
The MIC was 0.2 µg/mL (≈ 1.46 µM).

Which MIC (M. tuberculosis [5]; M. tb ref 34) does the source give for `C=CC(O)(CC[C@@H](C)[C@H]1CC[C@H]2[C@@H]3CC=C4C[C@@H](O)CC[C@]4(C)[C@H]3CC[C@]12C)C(C)C` (some centres unmarked) [saringosterol] here?
Its MIC is 0.250 µg/mL (≈ 0.583 µM).

Which MIC (M. tuberculosis [5]; phytosterols from Morinda citrifolia against M. tb ref 33 (Saludes et al.)) does the source give for `CC[C@H](/C=C/[C@@H](C)[C@H]1CC[C@H]2[C@@H]3CC=C4C[C@@H](O)CC[C@]4(C)[C@H]3CC[C@]12C)C(C)C` [stigmasterol] here?
Its MIC is 32.00 µg/mL (≈ 77.5 µM).
